Series [1] relates to human acute myeloid leukemia cell line MOLM-13. Kind of series: In vivo effect of combined use of Compound A and decitabine on subcutaneous MOLM-13 tumors in NOD-SCID mice (Test Example 2). The following applies: for TGI (%): 17 days after tumor inoculation. On the procedure:
Human acute myeloid leukemia cell line MOLM-13 cells were suspended to 5×10^7 cells/mL using phosphate-buffered saline. 0.1 mL of the prepared cell suspension was subcutaneously transplanted to each NOD-SCID mouse (male, 6 weeks old). […] For a combined use group, 25 mg/kg or 50 mg/kg Compound A and 1 mg/kg or 50 mg/kg decitabine were administered sequentially. […] The major axis (mm) and minor axis (mm) of tumor were measured over time using an electronic digital caliper. […] In addition, the results of the last body weight measurement were used in dose calculation. […] A: Average tumor volume of the compound-administered group on the date of assessment (*) B: Average tumor volume of the untreated control group on the date of assessment (*) *: The tumor volume was calculated according to ½×[Major axis of tumor]×[Minor axis of tumor]×[Minor axis of tumor].

Series [2] can be described thus: Body weight change of MOLM-13 tumor-bearing NOD-SCID mice, Compound A and decitabine (Test Example 2). In kind it is in vivo, mouse. As for the experimental part: (§1) Human acute myeloid leukemia cell line MOLM-13 cells were suspended to 5×10^7 cells/mL using phosphate-buffered saline. 0.1 mL of the prepared cell suspension was subcutaneously transplanted to each NOD-SCID mouse (male, 6 weeks old). On 6 days after the tumor inoculation, after confirmation that the average tumor volume exceeded 100 mm^3, the mice were grouped on the basis of their tumor volume values. 25 mg/kg or 50 mg/kg Compound A was orally administered by forced administration to the mice. 1 mg/kg or 50 mg/kg decitabine was intravenously administered to the tails of the mice. For a combined use group, 25 mg/kg or 50 mg/kg Compound A and 1 mg/kg or 50 mg/kg decitabine were administered sequentially. The administration of Compound A was performed once a day for 5 consecutive days (6 to 10 days after the tumor inoculation) from the date of grouping (6 days after the tumor inoculation), and after a 2-day drug holiday, performed once a day for 4 consecutive days (13 to 16 days after the tumor inoculation). The administration of decitabine to the 50 mg/kg group was performed at the date of grouping (6 days after the tumor inoculation), and the administration thereof to the 1 mg/kg group was performed once a day for 5 consecutive days (6 to 10 days after the tumor inoculation) from the date of grouping (6 days after the tumor inoculation). The major axis (mm) and minor axis (mm) of tumor were measured over time using an electronic digital caliper. Tumor growth inhibition % (TGI %) on the date of assessment (17 days after the tumor inoculation) calculated according to calculation formula (4) shown below was used in evaluation. Also, the body weights were measured over time using an automatic balance for small animals, and body weight change % was calculated according to calculation formula (5) shown below to study the influence of drug administration on the body weights. In addition, the results of the last body weight measurement were used in dose calculation.
(§2) Body weight change (%)=Average body weight change % of the individuals (5)
(§3) Body weight change % of each individual=[…]
(§4) BWn: Body weight on day n
(§5) BWs: Body weight on the start day of administration

Series [3] relates to human acute myeloid leukemia cell line MOLM-13. Nature of the series: In vivo effect of combined use of Compound A and azacitidine on subcutaneous MOLM-13 tumors in NOD-SCID mice (Test Example 1). Particulars: azacitidine 4 mg/kg iv. On the procedure: Human acute myeloid leukemia cell line MOLM-13 cells were suspended to 5×10^7 cells/mL using phosphate-buffered saline. 0.1 mL of the prepared cell suspension was subcutaneously transplanted to each NOD-SCID mouse (male, 6 weeks old). […] The major axis (mm) and minor axis (mm) of tumor were measured over time using an electronic digital caliper. […] In addition, the results of the last body weight measurement were used in dose calculation. […] A: Average tumor volume of the compound-administered group on the date of assessment (*) B: Average tumor volume of the untreated control group on the date of assessment (*) *: The tumor volume was calculated according to ½×[Major axis of tumor]×[Minor axis of tumor]×[Minor axis of tumor].

A short description of series [4]: Body weight change of MOLM-13 tumor-bearing NOD-SCID mice, Compound A and azacitidine (Test Example 1). In kind it is in vivo, mouse. Particulars: azacitidine 4 mg/kg iv. On the procedure:
as §1, with “the mice. 2.5 mg/kg or” for “the mice. 1 mg/kg or”, “mg/kg or 4 mg/kg azacitidine” for “mg/kg or 50 mg/kg decitabine”, “4 mg/kg azacitidine was intravenously” for “50 mg/kg decitabine was intravenously”, “A and 2.5 mg/kg or” for “A and 1 mg/kg or”, “4 mg/kg azacitidine were administered” for “50 mg/kg decitabine were administered”, “administration of azacitidine was performed” for “administration of decitabine to the 50 mg/kg group was performed at the date of grouping (6 days after the tumor inoculation), and the administration thereof to the 1 mg/kg group was performed”
as §2, §3, §4, §5

Where [5] appears, read: decitabine 1 mg/kg iv, day 6 after tumor inoculation.
Setting [6] is: decitabine 1 mg/kg iv, day 8 after tumor inoculation.
Setting [7] is: decitabine 1 mg/kg iv, day 10 after tumor inoculation.
[8] abbreviates: decitabine 1 mg/kg iv, day 13 after tumor inoculation.
The mark [9] stands for this setting: decitabine 1 mg/kg iv, day 15 after tumor inoculation.
Where [10] appears, read: decitabine 1 mg/kg iv, day 17 after tumor inoculation.
Setting [11] is: decitabine 50 mg/kg iv, day 6 after tumor inoculation.
Setting [12] is: decitabine 50 mg/kg iv, day 8 after tumor inoculation.
Setting [13] is: decitabine 50 mg/kg iv, day 10 after tumor inoculation.
Where [14] appears, read: decitabine 50 mg/kg iv, day 13 after tumor inoculation.
Where [15] appears, read: decitabine 50 mg/kg iv, day 15 after tumor inoculation.
Where [16] appears, read: decitabine 50 mg/kg iv, day 17 after tumor inoculation.

In the case of `Nc1ncn([C@H]2C[C@H](O)[C@@H](CO)O2)c(=O)n1` [Decitabine, 4-amino-1-(2-deoxy-β-D-erythro-pentofuranosyl)-1,3,5-triazin-2(1H)-one, reference compound], the “TGI (%)” value is listed as 38% in series [1] (decitabine 1 mg/kg iv) and 14% in series [1] (decitabine 50 mg/kg iv). Besides, the “Estimated tumor volume, average” value in series [1] (setting [5]) was 144 mm^3; in series [1] (setting [6]) it was 228 mm^3; in series [1] (setting [7]) it was 327 mm^3; in series [1] (setting [8]) it was 585 mm^3; in series [1] (setting [9]) it was 901 mm^3; in series [1] (setting [10]), 1441 mm^3. For the same molecule, the “Estimated tumor volume, average” value is listed as 145 mm^3 in series [1] (setting [11]); 206 mm^3 in series [1] (setting [12]); 365 mm^3 in series [1] (setting [13]); 732 mm^3 in series [1] (setting [14]); 1175 mm^3 in series [1] (setting [15]); 1997 mm^3 in series [1] (setting [16]). Also, the “Body weight change (%), average” value in series [2] (setting [5]) is recorded as 0.0%; in series [2] (setting [6]) it was 2.6%; in series [2] (setting [7]), 2.5%; in series [2] (setting [8]) it was 7.8%; in series [2] (setting [9]), 11.5%; in series [2] (setting [10]) it was 14.3%. For the same molecule, the “Body weight change (%), average” value was 0.0% in series [2] (setting [11]); 3.7% in series [2] (setting [12]); 6.0% in series [2] (setting [13]); 9.6% in series [2] (setting [14]); 10.3% in series [2] (setting [15]); 14.6% in series [2] (setting [16]).

Consider `Nc1ncn([C@@H]2O[C@H](CO)[C@@H](O)[C@H]2O)c(=O)n1` [Azacitidine, 4-amino-1-β-D-ribofuranosyl-1,3,5-triazin-2(1H)-one, reference compound], for which the “TGI (%)” value in series [3] (17 days after tumor inoculation) turned out to be 28%. Besides, the “Estimated tumor volume, average” value in series [3] (day 6 after tumor inoculation) is recorded as 115 mm^3; in series [3] (day 8 after tumor inoculation), 226 mm^3; in series [3] (day 10 after tumor inoculation), 334 mm^3; in series [3] (day 13 after tumor inoculation) it was 637 mm^3; in series [3] (day 15 after tumor inoculation), 1359 mm^3; in series [3] (day 17 after tumor inoculation), 1855 mm^3. Also, the “Body weight change (%), average” value in series [4] (day 6 after tumor inoculation) is listed as 0.0%; in series [4] (day 8 after tumor inoculation), −0.2%; in series [4] (day 10 after tumor inoculation), −0.4%; in series [4] (day 13 after tumor inoculation), 5.4%; in series [4] (day 15 after tumor inoculation) it was 8.8%; in series [4] (day 17 after tumor inoculation), 12.1%.

Source of the values: patent publication US20190240210A1, “Treatment Method by Combined Use of MDM2 Inhibitor and DNA Methyltransferase Inhibitor” (DAIICHI SANKYO COMPANY, LIMITED, priority 2016, published 2019).
